Data as given in US12570603B2, “FABP4/5 inhibitors, methods of use and methods of making” (Novius Therapeutics, LLC, priority 2021, dated 2026).
Read-outs that look alike come from different tables or passages of the source.

Tests used:
[1] = Level of B4 in serum and tissues after IP injection or oral gavage; assay type: in vivo, mice
Method: Male CD-1 mice (n=3) were treated with B4 either by IP injections (5 mg/kg) or by oral gavage (10 mg/kg). At times, 3, 6, and 24 hours after treatment, mice were euthanized and serum, liver, adipose, muscle and brain tissues were collected and analyzed to determine level of B4. Untreated mice were used as controls.

[2] = tested on: LX-2 cells; assay: Hepatic stellate cells activation assay (αSMA after TGF-β); assay type: cell-based, human; details: B4 0.1 to 5 μM versus untreated cells
Method: LX-2 cells were treated with compound for 6 h. then stimulated with TGF-β ([…]) for additional 24 h. Cells were fixed with 4% paraformaldehyde and immununostained with the fibrosis marker αSMA. Nuclei were stained with Dapi. Images and quantification of positive cells was done using Cytation5 (Agilent).

[3] = tested on: BT-549 cells; assay: Proliferation assay, combination with chemotherapy; assay type: cell-based, human; details: B4 1 μM with doxorubicin 0 to 100 nM
Method: (§1) 2000 cells were plated in each well of 96-well plate. The next day cells were treated with compounds and incubated in Incucyte for 4 days. Images taken every 4 hours for the duration of the time were analyzed to calculate percentage of confluency in response to the treatments. Growth inhibition was calculated as 1−(percentage of viable cells out of untreated cells).

[4] = tested on: TNBC lines and MCF7; assay: Proliferation assay in multiple TNBC lines and MCF7, MB-231 shF5 as control; assay type: cell-based
Method: as §1

[5] = molecular target: T1, FABP5 (Homo sapiens, UniProt Q01469); assay: FABP binding assay by fluorescence titration (ANS competition)
T1 construct: made in house
T1 sequence (Q01469 whole entry, species assumed): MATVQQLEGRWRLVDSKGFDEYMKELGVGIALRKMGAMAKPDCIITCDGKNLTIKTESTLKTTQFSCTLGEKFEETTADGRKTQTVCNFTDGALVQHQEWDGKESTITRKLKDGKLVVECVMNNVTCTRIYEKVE
Method: (§2) This example illustrates a binding assay study used to determine the binding affinity of the various inhibitor compounds disclosed herein with the various FABPs: FABP3, FABP4, FABP5 and FABP7.
(§3) Binding assays for FABP3, FABP4, FABP5 and FABP7 were carried out by fluorescence titrations. FABPs were bacterially expressed and purified and the equilibrium dissociation constants (Kd) that characterize their interactions with different compounds were measured by fluorescence competition assays. The method entails two steps as described in e.g., Lin, Q. et al., “Ligand selectivity of the peroxisome proliferator-activated receptor alpha,” Biochemistry 38, 185-190, doi:10.1021/bi9816094 bi9816094 [pii](1999). In the first step, Kd for the association of the protein with the fluorescent fatty acid probe ANS was measured. Protein ([…]) was titrated with ANS from a concentrated solution in DMSO. Ligand binding was monitored by following the increase in the fluorescence of the ligand upon binding to the protein, and Kd for the association of ANS with the each FABP was computed from titration curves as described in e.g., Norris, A. W. & Li, E., “Fluorometric titration of the CRABPs,” Methods Mol Biol 89, 123-139 (1998)). Kds for binding of non-fluorescent ligands were then measured by monitoring their ability to displace ANS in the binding pocket of the protein. Each FABP was pre-complexed with ANS at 1:1 molar ratio and titrated with the different compounds whose binding was reflected by a decrease in probe fluorescence. Kds were extracted from the EC50 of the competition curve and the measured Kd for ANS.
(§4) Binding assays for FABP3, FABP4, FABP5 and FABP7 were carried out by fluorescence titrations as described in Example 16.

[6] = molecular target: T2, FABP4 (Homo sapiens, UniProt P15090); assay: as above
T2 construct: made in house
T2 sequence (P15090 whole entry, species assumed): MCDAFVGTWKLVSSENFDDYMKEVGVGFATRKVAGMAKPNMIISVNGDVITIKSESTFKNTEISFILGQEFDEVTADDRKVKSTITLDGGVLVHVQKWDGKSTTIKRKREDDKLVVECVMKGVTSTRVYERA
Method: as §2, §3, §4

[7] = tested on: 3T3-L1 adipocytes; assay: Lipid uptake during adipocyte maturation, Nile Red; assay type: cell-based, mouse; details: B4 from day 6, stained day 12
Method: (§5) 3) 3T3-L1: Mouse 3T3-L1 cells were differentiated in culture according to ATCC protocol to become mature adipocytes. At day 6 of the differentiation, compound treatment started. Cells were stained by Nile Red on day and color intensity in each cell was measured relative to Dapi staining. Lipolysis was measured by measuring glycerol levels using lipolysis kit (Cayman, USA) according to the manufacturer manual.
as §5, with “1)” for “3)”

[8] = tested on: FABP5 together with PPARδ; assay: Transcriptional activation assay in cells overexpressing FABP5, with PPARδ activator GW0742; assay type: cell-based; details: together with GW0742, FIG. 8
Method: (§6) COS-7 were cultured in 6-well plates and co-transfected with either a luciferase reporter driven by 3 copies of a PPRE and expression vector for either PPARδ, PPARα or PPARγ together with a vector harboring cDNA for β-galactosidase, serving as a transfection control. To test whether FABP4 or FABP5 mediate activation of their cognate receptors PPARγ and PPARδ, respectively, cells were also co-transfected with a plasmid harboring sequence of either FABP4 or FABP5. 18 h post-transfection, cells were placed in a serum-free medium and treated with agonist/compound. 18 h. later, cells were lysed, luciferase activity was assayed (Promega, WI, USA) and corrected for transfection efficiency by the activity of β-galactosidase.

[9] = tested on: FABP4 together with PPARγ; assay: Transcriptional activation assay in cells overexpressing FABP4, with PPARγ activator rosiglitazone; assay type: cell-based; details: FIG. 7
Method: as §6

[10] = IP Injection (0.35 μmole/mouse), 3 hr
[11] = IP Injection (0.35 μmole/mouse), 6 hr
[12] = IP Injection (0.35 μmole/mouse), 24 hr
[13] = Oral Gavage (0.71 μmole/mouse), 3 hr
[14] = Oral Gavage (0.71 μmole/mouse), 6 hr
[15] = Oral Gavage (0.71 μmole/mouse), 24 hr

Drug Concentration, Adipose [1, 10]: 7.98 ± 3.82 µmol/kg
Drug Concentration, Blood [1, 10]: 1.91 ± 0.14 µM
Drug Concentration, Brain [1, 10]: 0.15 ± 0.04 µmol/kg
Drug Concentration, Liver [1, 10]: 7.05 ± 2.0 µmol/kg
Drug Concentration, Muscle [1, 10]: 1.7 ± 0.8 µmol/kg
Drug Concentration, Adipose [1, 11]: 2.45 ± 1.12 µmol/kg
Drug Concentration, Blood [1, 11]: 1.37 ± 0.12 µM
Drug Concentration, Brain [1, 11]: 0.09 ± 0.01 µmol/kg
Drug Concentration, Liver [1, 11]: 3.45 ± 1.49 µmol/kg
Drug Concentration, Muscle [1, 11]: 1.07 ± 0.8 µmol/kg
Drug Concentration, Adipose [1, 12]: 0.013 ± 0.006 µmol/kg
Drug Concentration, Blood [1, 12]: 0.0054 ± 0.002 µM
Drug Concentration, Brain [1, 12]: 0.0003 ± 0.0002 µmol/kg
Drug Concentration, Liver [1, 12]: 0.035 ± 0.016 µmol/kg
Drug Concentration, Muscle [1, 12]: 0.008 ± 0.002 µmol/kg
Drug Concentration, Adipose [1, 13]: 1.41 ± 0.002 µmol/kg
Drug Concentration, Blood [1, 13]: 1.24 ± 0.25 µM
Drug Concentration, Brain [1, 13]: 0.1 ± 0.04 µmol/kg
Drug Concentration, Liver [1, 13]: 8.93 ± 2.2 µmol/kg
Drug Concentration, Muscle [1, 13]: 1.33 ± 0.74 µmol/kg
Drug Concentration, Adipose [1, 14]: 1.38 ± 0.05 µmol/kg
Drug Concentration, Blood [1, 14]: 0.98 ± 0.5 µM
Drug Concentration, Brain [1, 14]: 0.09 ± 0.04 µmol/kg
Drug Concentration, Liver [1, 14]: 6.47 ± 2.3 µmol/kg
Drug Concentration, Muscle [1, 14]: 0.95 ± 0.45 µmol/kg
Drug Concentration, Adipose [1, 15]: 0.11 ± 0.05 µmol/kg
Drug Concentration, Blood [1, 15]: 0.0072 ± 0.002 µM
Drug Concentration, Brain [1, 15]: 0.0009 ± 0.0007 µmol/kg
Drug Concentration, Liver [1, 15]: 0.035 ± 0.013 µmol/kg
Drug Concentration, Muscle [1, 15]: 0.014 ± 0.018 µmol/kg
clearance from serum and tissues ([1]; male CD-1 mice, IP 5 mg/kg or oral gavage 10 mg/kg, after 24 hours): cleared from the serum and tissues
Kd ([5]; FIG. 1A/1B, read-out: binding affinity towards FABP5 (Kd)): < 1000 nM
Kd ([5]; fluorescence competition with ANS, read-out: FABP5 binding): 36 nM
Kd ([6]; FIG. 1A/1B, read-out: binding affinity towards FABP4 (Kd)): < 1000 nM
Kd ([6]; fluorescence competition with ANS, read-out: FABP4 binding): 66 nM
Structure (SMILES): CC(C)Oc1cc(NC(=O)CSCC(=O)O)c(Cl)cc1Cl [Compound B4, 2-((2-((2,4-dichloro-5-isopropoxyphenyl)amino)-2-oxoethyl)thio)acetic acid]
levels of α-SMA following activation by TGF-β [2]: significantly lower than in untreated cells
sensitization to chemotherapy [3]: sensitized to chemotherapy
growth inhibition of TNBC lines by FABP5 level [4]: inhibited growth of only TNBC lines expressing high FABP5 levels
lipid droplets in adipocytes (Nile Red) [7]: fewer LD within the cells
inhibition of PPARδ activity in cells overexpressing FABP5 [8]: inhibit activity of the nuclear receptors only in cells that express the binding proteins
inhibition of PPARγ activity in cells overexpressing FABP4 [9]: inhibit activity of the nuclear receptors only in cells that express the binding proteins
